In ChEMBL document CHEMBL4619705, “Conjugation of peptides to short-acyl-chain ceramides for delivery across mucosal cell barriers” (Bioorg Med Chem Lett, 2020):

Assay: Drug transport in MDCK2 cells assessed as transcytosis across epithelial monolayers at 37 degree C measured after 3 hrs by transwell assay
Assay type: ADME, cell-based, Canis lupus familiaris
Conditions: dog, mdck-ii

Drug transport	SMILES
5.8%	CCCCCCCCCCCCCC=CC=C(C=NOCC(=O)NCCCC[C@@H](NC(=O)CNC(=O)[C@@H](CO)NC(=O)CNC(=O)[C@@H](CCCNC(=N)N)NC(=O)CNC(=O)[C@@H](Cc1ccc(O)cc1)NC(=O)CNC(=O)[C@@H](CO)NC(=O)CNC(=O)[C@@H](CCCCNC(=O)CCCC[C@@H]1SC[C@@H]2NC(=O)N[C@@H]21)NC(=O)[C@H](N)Cc1cn(CCCCCCNC(=O)c2ccc(-c3c4ccc(=N)c(S(=O)(=O)O)c-4oc4c(S(=O)(=O)O)c(N)ccc34)c(C(=O)O)c2)nn1)C(N)=O)NC(=O)CCCCC
11.4%	CCCCCCCCCCCCC/C=C\[C@@H](O)[C@H](/C=N\OCC(=O)NCCCC[C@@H](NC(=O)CNC(=O)[C@@H](CO)NC(=O)CNC(=O)[C@@H](CCCNC(=N)N)NC(=O)CNC(=O)[C@@H](Cc1ccc(O)cc1)NC(=O)CNC(=O)[C@@H](CO)NC(=O)CNC(=O)[C@@H](CCCCNC(=O)CCCC[C@@H]1SC[C@@H]2NC(=O)N[C@@H]21)NC(=O)[C@H](N)Cc1cn(CCCCCCNC(=O)c2ccc(-c3c4ccc(=N)c(S(=O)(=O)O)c-4oc4c(S(=O)(=O)O)c(N)ccc34)c(C(=O)O)c2)nn1)C(N)=O)NC(=O)CCCCC

SMILES	Drug transport
N=C(N)NCCC[C@@H](NC(=O)CNC(=O)[C@@H](Cc1ccc(O)cc1)NC(=O)CNC(=O)[C@@H](CO)NC(=O)CNC(=O)[C@@H](CCCCNC(=O)CCCC[C@@H]1SC[C@@H]2NC(=O)N[C@@H]21)NC(=O)[C@H](N)Cc1cn(CCCCCCNC(=O)c2ccc(-c3c4ccc(=N)c(S(=O)(=O)O)c-4oc4c(S(=O)(=O)O)c(N)ccc34)c(C(=O)O)c2)nn1)C(=O)NCC(=O)N[C@H](CO)C(=O)NCC(=O)N[C@H](CCCCNC(=O)CON)C(N)=O	0.2%
